# Assay results taken from patent US20260258368A1, “METABOLIC SELECTION FOR GLYCOGEN-STORING CELLS IN VITRO” (The Board of Trustees of the Leland Stanford Junior …, priority 2023, published 2026).
# Experiments:
# Assay in all cases: Poly(I:C) treatment, interferon-stimulated gene expression (qPCR, RNA-seq)
# Settings in all cases: 50 μg/mL poly(I:C), 1 day
# HepG2 liver cancer cells = assay type: cell-based, human
# Source text: (§1) RNA extraction and bulk-population RNA-seq. Cells were lysed using Zymo RNA lysis buffer and total RNA was extracted from cells using the Zymo Quick RNA kit per the manufacturer's instructions. High-quality RNA with RNA integrity number (RIN)>7 was used for library construction. For each cell-type, we included 2-3 technical replicates, generally defined as different wells of the same cell-type generated in the same differentiation experiment. In one experiment, 46 RNA-seq libraries were multiplexed and then sequenced on 2 lanes of the Illumina NovaSeq 6000 S4 sequencer by Novogene to generate 150-bp paired-end reads. In a second experiment, 36 RNA-seq libraries were multiplexed and then sequenced on 1 lane of the NovaS4 sequencer by Novogene to generate 150-bp paired-end reads.
# (§2) Poly(I:C) treatment. HepG2 cells, HuH7 cells, metabolically-selected H1 hPSC-and H7 hPSC-derived hepatocytes, and primary human hepatocytes (Lonza and Gibco) were thawed in a 37° C. water bath for 3 minutes. After thawing, HepG2, HuH7, and hPSC-derived hepatocytes were quenched in warm DMEM/F12 to dilute the cryopreservation solution. After thawing, primary human hepatocytes, obtained from either Lonza or Gibco, were respectively quenched in MCHT50 and CHRM to dilute the cryopreservation solution. Thawed cells were centrifuged at 1500 rpm for 5 mins and the supernatant was discarded, leaving the cell pellets. The cell pellets were resuspended in the aforementioned hepatocyte maintenance media (Lonza hepatocyte culture medium supplemented with 10 μM Dexamethasone, 10 μM Forskolin, 2 μM RO4929097, 200 μg/ml AA2P, 10 μg/ml Insulin, and 1 μM Thiazovivin [DFRAIT]). For each cell-type, ~400,000 cells were plated per well of 24-well plate that had been coated with collagen 1 (Corning Biocoat). For hPSC-derived hepatocytes, the collagen 1-coated wells were briefly treated with Geltrex prior to plating cells. The media was replenished every day for 2 days and on the third day, hepatocyte maintenance media+ DFRAIT+50 μg/ml poly(I:C) was added for 24 hours. Cells were then lysed with RNA lysis buffer (Zymo) and processed with an RNA extraction kit (Zymo) to extract RNA for qPCR and RNA-seq.
# HuH7 liver cancer cells = assay type: cell-based, human
# Source text: as §1, §2
# [1] = system: hPSC-derived hepatocytes (H1 and H7 hPSC lines); assay type: cell-based, human
# Source text: as §1, §2
# [2] = system: primary adult human hepatocytes (Lonza, Gibco); assay type: cell-based
# Source text: as §1
# Poly(I:C) treatment. HepG2 cells, HuH7 cells, metabolically-selected H1 hPSC-and H7 hPSC-derived hepatocytes, and primary human hepatocytes (Lonza and Gibco) were thawed in a 37° C. water bath for 3 minutes. After thawing, HepG2, HuH7, and hPSC-derived hepatocytes were quenched in warm DMEM/F12 to dilute the cryopreservation solution. After thawing, primary human hepatocytes, obtained from either Lonza or Gibco, were respectively quenched in MCHT50 and CHRM to dilute the cryopreservation solution. Thawed cells were centrifuged at 1500 rpm for 5 mins and the supernatant was discarded, leaving the cell pellets. […]
substance,measurement,setting,value
poly(I:C),ISG and inflammatory cytokine expression change (RNA-seq),HepG2 liver cancer cells,minimal changes
same,upregulation of interferon-stimulated genes (qPCR),HepG2 liver cancer cells,largely failed to upregulate
same,ISG and inflammatory cytokine expression change (RNA-seq),HuH7 liver cancer cells,minimal changes
same,upregulation of interferon-stimulated genes (qPCR),HuH7 liver cancer cells,largely failed to upregulate
same,ISG and inflammatory cytokine expression change (RNA-seq),[1],significant ISG and inflammatory cytokine upregulation
same,"induction of interferon-stimulated genes MX1, VIPERIN, IFIT1, IFIT2, IFIT3, OAS1, OASL, ISG15 (qPCR)",[1]; H1- and H7-derived hepatocytes,strongly induced
same,ISG and inflammatory cytokine expression change (RNA-seq),[2],significant ISG and inflammatory cytokine upregulation
same,upregulation of interferon-stimulated genes (qPCR),[2]; two hepatocyte sources,upregulated ISGs
